PubChem BioAssay (NCI)
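Step 1: Grow cells in 96-well plates. Step 2: Expose to compound for 48 hours at 5 concentrations. Step 3: Interpolate endpoints linearly; if unreached, use highest concentration. TGI is the concentration that stops growth completely.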

Assays:
Assay in all cases: inhibition of tumour cell growth, NCI panel, 48 h
BT-549 breast = system: BT-549 breast
SK-MEL-5 melanoma = system: SK-MEL-5 melanoma
A549 NSCLC = system: A549 NSCLC
KM12 colon = system: KM12 colon
NCI-H23 lung = system: NCI-H23 lung
SNB-75 CNS = system: SNB-75 CNS
SR leukemia = system: SR leukemia
DU-145 prostate = system: DU-145 prostate
UACC-257 melanoma = system: UACC-257 melanoma
OVCAR-3 ovarian = system: OVCAR-3 ovarian
HCT-116 colon = system: HCT-116 colon
EKVX NSCLC = system: EKVX NSCLC
HS 578T breast = system: HS 578T breast
PC-3 prostate = system: PC-3 prostate
MCF7 breast = system: MCF7 breast
M14 melanoma = system: M14 melanoma
T-47D breast = system: T-47D breast
MDA-MB-435 = system: MDA-MB-435
NCI-H226 lung = system: NCI-H226 lung
SK-MEL-2 melanoma = system: SK-MEL-2 melanoma
SW-620 colon = system: SW-620 colon
A498 renal = system: A498 renal
TK-10 renal = system: TK-10 renal
HT29 colon = system: HT29 colon
UACC-62 melanoma = system: UACC-62 melanoma
OVCAR-8 ovarian = system: OVCAR-8 ovarian
LOX IMVI melanoma = system: LOX IMVI melanoma
RPMI-8226 leukemia = system: RPMI-8226 leukemia
MOLT-4 leukemia = system: MOLT-4 leukemia
RXF 393 renal = system: RXF 393 renal
IGROV1 ovarian = system: IGROV1 ovarian
U251 CNS = system: U251 CNS
HOP-62 NSCLC = system: HOP-62 NSCLC
CAKI-1 renal = system: CAKI-1 renal
CCRF-CEM leukemia = system: CCRF-CEM leukemia
COLO 205 colon = system: COLO 205 colon
SF-268 CNS = system: SF-268 CNS
HOP-92 NSCLC = system: HOP-92 NSCLC
SK-OV-3 ovarian = system: SK-OV-3 ovarian
MDA-N = system: MDA-N
MALME-3M melanoma = system: MALME-3M melanoma
NCI-H460 lung = system: NCI-H460 lung
OVCAR-5 ovarian = system: OVCAR-5 ovarian
SK-MEL-28 melanoma = system: SK-MEL-28 melanoma
NCI-H522 lung = system: NCI-H522 lung
HCT-15 colon = system: HCT-15 colon
NCI/ADR-RES ovarian = system: NCI/ADR-RES ovarian
ACHN renal = system: ACHN renal
MDA-MB-231 breast = system: MDA-MB-231 breast
K-562 leukemia = system: K-562 leukemia
OVCAR-4 ovarian = system: OVCAR-4 ovarian
786-0 renal = system: 786-0 renal
SF-295 CNS = system: SF-295 CNS
SN12C renal = system: SN12C renal
UO-31 renal = system: UO-31 renal
SNB-19 CNS = system: SNB-19 CNS
SF-539 CNS = system: SF-539 CNS
HCC-2998 colon = system: HCC-2998 colon
HL-60(TB) leukemia = system: HL-60(TB) leukemia

O=C(O)C1C(C(=O)O)C(C(=O)O)C1C(=O)O (stereo not drawn)
TGI (BT-549 breast): > 100 µM | TGI (SK-MEL-5 melanoma): > 100 µM | TGI (A549 NSCLC): > 100 µM | TGI (KM12 colon): > 100 µM | TGI (NCI-H23 lung): > 100 µM | TGI (SNB-75 CNS): > 100 µM | TGI (SR leukemia): > 100 µM | TGI (DU-145 prostate): > 100 µM | TGI (UACC-257 melanoma): > 100 µM | TGI (OVCAR-3 ovarian): > 100 µM | TGI (HCT-116 colon): > 100 µM | TGI (EKVX NSCLC): > 100 µM | TGI (HS 578T breast): > 100 µM | TGI (PC-3 prostate): > 100 µM | TGI (MCF7 breast): > 100 µM | TGI (M14 melanoma): > 100 µM | TGI (T-47D breast): > 100 µM | TGI (MDA-MB-435): > 100 µM | TGI (NCI-H226 lung): > 100 µM | TGI (SK-MEL-2 melanoma): > 100 µM | TGI (SW-620 colon): > 100 µM | TGI (A498 renal): > 100 µM | TGI (TK-10 renal): > 100 µM | TGI (HT29 colon): > 100 µM | TGI (UACC-62 melanoma): > 100 µM | TGI (OVCAR-8 ovarian): > 100 µM | TGI (LOX IMVI melanoma): > 100 µM | TGI (RPMI-8226 leukemia): > 100 µM | TGI (MOLT-4 leukemia): > 100 µM | TGI (RXF 393 renal): > 100 µM | TGI (IGROV1 ovarian): > 100 µM | TGI (U251 CNS): > 100 µM | TGI (HOP-62 NSCLC): > 100 µM | TGI (CAKI-1 renal): > 100 µM | TGI (CCRF-CEM leukemia): > 100 µM | TGI (COLO 205 colon): > 100 µM | TGI (SF-268 CNS): > 100 µM | TGI (HOP-92 NSCLC): > 100 µM | TGI (SK-OV-3 ovarian): > 100 µM | TGI (MDA-N): > 100 µM | TGI (MALME-3M melanoma): > 100 µM | TGI (NCI-H460 lung): > 100 µM | TGI (OVCAR-5 ovarian): > 100 µM | TGI (SK-MEL-28 melanoma): > 100 µM | TGI (NCI-H522 lung): > 100 µM | TGI (HCT-15 colon): > 100 µM | TGI (NCI/ADR-RES ovarian): > 100 µM | TGI (ACHN renal): > 100 µM | TGI (MDA-MB-231 breast): > 100 µM | TGI (K-562 leukemia): > 100 µM | TGI (OVCAR-4 ovarian): > 100 µM | TGI (786-0 renal): > 100 µM | TGI (SF-295 CNS): > 100 µM | TGI (SN12C renal): > 100 µM | TGI (UO-31 renal): > 100 µM | TGI (SNB-19 CNS): > 100 µM | TGI (SF-539 CNS): > 100 µM

O=C(CNc1ccc(Cl)cc1)Nn1c(-c2ccccc2)nc2ccccc2c1=O
TGI (BT-549 breast): 6.29 µM | TGI (SK-MEL-5 melanoma): 7.09 µM | TGI (A549 NSCLC): 29.4 µM | TGI (KM12 colon): 24.5 µM | TGI (NCI-H23 lung): 18 µM | TGI (SNB-75 CNS): 24.1 µM | TGI (SR leukemia): > 52.1 µM | TGI (DU-145 prostate): 28.5 µM | TGI (UACC-257 melanoma): 33.2 µM | TGI (HCC-2998 colon): 23.5 µM | TGI (OVCAR-3 ovarian): 25.8 µM | TGI (HCT-116 colon): 4.65 µM | TGI (EKVX NSCLC): 35.7 µM | TGI (HS 578T breast): 67 µM | TGI (PC-3 prostate): 25.4 µM | TGI (MCF7 breast): 8.06 µM | TGI (M14 melanoma): 20.3 µM | TGI (HL-60(TB) leukemia): 32.1 µM | TGI (T-47D breast): 32.6 µM | TGI (MDA-MB-435): 23.2 µM | TGI (NCI-H226 lung): 25.2 µM | TGI (SK-MEL-2 melanoma): 30.4 µM | TGI (SW-620 colon): 11.9 µM | TGI (A498 renal): 29.7 µM | TGI (TK-10 renal): 30.5 µM | TGI (HT29 colon): 21.1 µM | TGI (UACC-62 melanoma): 10.9 µM | TGI (OVCAR-8 ovarian): 5.53 µM | TGI (LOX IMVI melanoma): 4.12 µM | TGI (RPMI-8226 leukemia): 45.2 µM | TGI (MOLT-4 leukemia): 16.2 µM | TGI (RXF 393 renal): 17.4 µM | TGI (IGROV1 ovarian): 15.7 µM | TGI (U251 CNS): 5.02 µM | TGI (HOP-62 NSCLC): 19.9 µM | TGI (CAKI-1 renal): 23.6 µM | TGI (CCRF-CEM leukemia): 9.48 µM | TGI (COLO 205 colon): 18.6 µM | TGI (SF-268 CNS): 26.9 µM | TGI (HOP-92 NSCLC): 13.4 µM | TGI (SK-OV-3 ovarian): 27.8 µM | TGI (MDA-N): 22.5 µM | TGI (MALME-3M melanoma): 13.7 µM | TGI (NCI-H460 lung): 23.4 µM | TGI (OVCAR-5 ovarian): 28.2 µM | TGI (SK-MEL-28 melanoma): 19.8 µM | TGI (NCI-H522 lung): 11.5 µM | TGI (HCT-15 colon): 18.9 µM | TGI (NCI/ADR-RES ovarian): 19 µM | TGI (ACHN renal): 22.3 µM | TGI (MDA-MB-231 breast): 13.6 µM | TGI (K-562 leukemia): 14.3 µM | TGI (OVCAR-4 ovarian): 27 µM | TGI (786-0 renal): 10.2 µM | TGI (SF-295 CNS): 29.8 µM | TGI (SN12C renal): 20.9 µM | TGI (UO-31 renal): 20.4 µM | TGI (SNB-19 CNS): 24.5 µM | TGI (SF-539 CNS): 14.9 µM

COC(=O)C1(c2ccc(N(C)C)cc2OC)CCCN(C(=O)Oc2ccccc2[N+](=O)[O-])CCc2c1[nH]c1ccccc21 (stereo not drawn)
TGI (BT-549 breast): > 100 µM | TGI (SK-MEL-5 melanoma): > 100 µM | TGI (A549 NSCLC): > 100 µM | TGI (KM12 colon): > 100 µM | TGI (NCI-H23 lung): > 100 µM | TGI (SNB-75 CNS): > 100 µM | TGI (SR leukemia): > 100 µM | TGI (DU-145 prostate): > 100 µM | TGI (UACC-257 melanoma): > 100 µM | TGI (HCC-2998 colon): > 100 µM | TGI (OVCAR-3 ovarian): > 100 µM | TGI (HCT-116 colon): > 100 µM | TGI (EKVX NSCLC): > 100 µM | TGI (HS 578T breast): > 100 µM | TGI (PC-3 prostate): > 100 µM | TGI (MCF7 breast): > 100 µM | TGI (M14 melanoma): > 100 µM | TGI (HL-60(TB) leukemia): > 100 µM | TGI (T-47D breast): > 100 µM | TGI (MDA-MB-435): > 100 µM | TGI (NCI-H226 lung): > 100 µM | TGI (SK-MEL-2 melanoma): > 100 µM | TGI (SW-620 colon): > 100 µM | TGI (A498 renal): > 100 µM | TGI (TK-10 renal): > 100 µM | TGI (HT29 colon): > 100 µM | TGI (UACC-62 melanoma): > 100 µM | TGI (OVCAR-8 ovarian): > 100 µM | TGI (LOX IMVI melanoma): > 100 µM | TGI (MOLT-4 leukemia): > 100 µM | TGI (RXF 393 renal): > 100 µM | TGI (IGROV1 ovarian): > 100 µM | TGI (U251 CNS): > 100 µM | TGI (HOP-62 NSCLC): > 100 µM | TGI (CAKI-1 renal): > 100 µM | TGI (COLO 205 colon): > 100 µM | TGI (SF-268 CNS): > 100 µM | TGI (HOP-92 NSCLC): > 100 µM | TGI (SK-OV-3 ovarian): > 100 µM | TGI (MDA-N): > 100 µM | TGI (MALME-3M melanoma): > 100 µM | TGI (NCI-H460 lung): > 100 µM | TGI (OVCAR-5 ovarian): > 100 µM | TGI (SK-MEL-28 melanoma): > 100 µM | TGI (NCI-H522 lung): > 100 µM | TGI (NCI/ADR-RES ovarian): > 100 µM | TGI (MDA-MB-231 breast): > 100 µM | TGI (K-562 leukemia): > 100 µM | TGI (SF-295 CNS): > 100 µM | TGI (SN12C renal): > 100 µM | TGI (UO-31 renal): > 100 µM | TGI (SF-539 CNS): > 100 µM
